Here are results for 25 compounds from patent publication US11299480B2, “2-arylsulfonamido-N-arylacetamide derivatized STAT3 inhibitors” (University of Hawaii, priority 2017, dated 2022).

Converted amounts (≈) assume the structure as drawn. Like-named read-outs stand apart in the source and are kept apart here.

For one data set, the target named is Stat3 (Mus musculus, UniProt P42227). Type of data set: biochemical. The method, then:
FIG. 1. Effect of select compounds of the present invention on Stat3 DNA-binding activity in vitro. […] Positions of Stat3:DNA complexes in gel are labeled; control lanes (0) represent nuclear extracts pre-treated with 10% DMSO.
Except where indicated, nuclear extracts were pre-incubated with compound for 30 min at room temperature prior to incubation with the radiolabeled probe for 30 min at 30° C. before subjecting to EMSA analysis. Where appropriate, bands corresponding to Stat3:DNA complexes were scanned and quantified for each concentration of compound using ImageJ and plotted as percent of control (DMSO) against concentration of compound, from which the IC50 values were derived.

Another data set in a line: physchem. The settings on record: simulated gastric fluid (SGF), pH 1.2, simulated gastric fluid.
Data set [1] can be described thus: Aqueous solubility (PBS, SGF, SIF).
Setting [2] is: Stat3 DNA-binding activity in vitro, nuclear extracts pre-incubated with compound 30 min at room temperature, hSIE probe, read-out: EMSA IC50.

Sequence of Stat3 (P42227 2-770 limits assumed): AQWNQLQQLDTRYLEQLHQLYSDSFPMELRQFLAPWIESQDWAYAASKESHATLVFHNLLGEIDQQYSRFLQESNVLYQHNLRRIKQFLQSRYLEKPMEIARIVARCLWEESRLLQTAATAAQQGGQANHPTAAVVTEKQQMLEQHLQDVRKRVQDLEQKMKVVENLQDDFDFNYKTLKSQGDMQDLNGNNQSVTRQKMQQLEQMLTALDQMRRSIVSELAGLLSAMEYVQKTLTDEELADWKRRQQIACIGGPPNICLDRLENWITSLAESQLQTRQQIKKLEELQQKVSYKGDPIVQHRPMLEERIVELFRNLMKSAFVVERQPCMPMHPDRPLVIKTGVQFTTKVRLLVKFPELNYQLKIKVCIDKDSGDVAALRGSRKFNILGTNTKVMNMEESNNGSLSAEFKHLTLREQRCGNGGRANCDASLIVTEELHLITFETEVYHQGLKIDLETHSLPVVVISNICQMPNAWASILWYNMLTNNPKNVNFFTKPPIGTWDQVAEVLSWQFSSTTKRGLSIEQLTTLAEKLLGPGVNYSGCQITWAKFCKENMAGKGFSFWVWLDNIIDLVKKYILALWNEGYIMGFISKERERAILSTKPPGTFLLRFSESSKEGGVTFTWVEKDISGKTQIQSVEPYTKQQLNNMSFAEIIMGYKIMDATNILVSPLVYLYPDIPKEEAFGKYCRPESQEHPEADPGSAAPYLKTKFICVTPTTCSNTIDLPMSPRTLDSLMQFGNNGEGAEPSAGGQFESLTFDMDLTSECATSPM

Regarding `O=C(O)c1ccc(N(Cc2ccc(C3CCOCC3)cc2)C(=O)[C@H]2CCCN2S(=O)(=O)c2c(F)c(F)c(F)c(F)c2F)cc1O` [Example 27, (R)-2-Hydroxy-4-(1-((pentafluorophenyl)sulfonyl)-N-(4-(tetrahydro-2H-pyran-4-yl)benzyl)pyrrolidine-2-carboxamido)benzoic acid], the half-maximal inhibitory concentration (IC50) (commonly the concentration that gives 50% inhibition) on Stat3 (setting [2]) turned out to be 5400 nM.
As for `O=C(O)c1ccc(N(Cc2ccc(C3CCOC3)cc2)C(=O)[C@H]2CCCN2S(=O)(=O)c2c(F)c(F)c(F)c(F)c2F)cc1O` (stereo partly drawn) [Example 29, 2-Hydroxy-4-((2R)-1-((pentafluorophenyl)sulfonyl)-N-(4-(tetrahydrofuran-3-yl)benzyl)pyrrolidine-2-carboxamido)benzoic acid], at Stat3 (setting [2]), the IC50 came out at 4500 ± 1000 nM.
Still for that read-out and setting: then `O=C(O)c1ccc(N(Cc2ccc(C3CCCCC3)cc2)C(=O)[C@H]2CCCCN2S(=O)(=O)c2c(F)c(F)c(F)c(F)c2F)cc1O` [Example 32, (R)-4-(N-(4-cyclohexylbenzyl)-1-((pentafluorophenyl)sulfonyl)piperidine-2-carboxamido)-2-hydroxybenzoic acid], with 5400 ± 1600 nM.
As to `C[C@H](C(=O)N(Cc1ccc(C2CCCCC2)cc1)c1ccc(C(=O)NO)cc1F)N(C)S(=O)(=O)c1c(F)c(F)c(F)c(F)c1F` [Example 38, (R)-4-(N-(4-Cyclohexylbenzyl)-2-((2,3,4,5,6-pentafluoro-N-methylphenyl)sulfonamido)propanamido)-3-fluoro-N-hydroxybenzamide], the solubility (as a rule, the dissolved amount per volume that the medium holds) in “physchem” is 0.8 µg/mL (≈ 1.22 µM). In data set [1], the “solubility in PBS buffer pH 7.4” value turned out to be 4.7 μg/mL and the “solubility in simulated intestinal fluid (SIF)” value was 72 µg/mL (≈ 109 µM). Besides, the “Solubility PBS” value in data set [1] (PBS buffer pH 7.4) was found to be 4.7 micrograms/milliliter. The “Solubility SIF” value in data set [1] (simulated intestinal fluid) was 72 micrograms/milliliter.
On to `O=C(O)c1ccc(N(Cc2ccc(C3CCCCC3)cc2)C(=O)[C@H]2CCCN2S(=O)(=O)c2c(F)c(F)c(F)c(F)c2F)c(F)c1` [Example 39, (R)-4-(N-(4-cyclohexylbenzyl)-1-((perfluorophenyl)sulfonyl)pyrrolidine-2-carboxamido)-3-fluorobenzoic acid], for which the IC50 at Stat3 (setting [2]) came to 5300 ± 400 nM.
With `O=C(O)c1ccc(N(Cc2ccc(C3CCCCC3)cc2)C(=O)[C@H]2CCCN2S(=O)(=O)c2c(F)c(F)c(F)c(F)c2F)cc1Cl` [Example 46, (R)-2-chloro-4-(N-(4-cyclohexylbenzyl)-1-((perfluorophenyl)sulfonyl)pyrrolidine-2-carboxamido)benzoic acid], on Stat3 (setting [2]), the IC50 was determined as 3800 ± 800 nM.
As to `Cc1cc(C(=O)O)cc(C)c1N(Cc1ccc(C2CCCCC2)cc1)C(=O)[C@@H](C)N(C)S(=O)(=O)c1c(F)c(F)c(F)c(F)c1F` [Example 47, (R)-4-(N-(4-cyclohexylbenzyl)-2-((2,3,4,5,6-pentafluoro-N-methylphenyl)sulfonamido)propanamido)-3,5-dimethylbenzoic acid], on Stat3 (setting [2]), the IC50 amounted to 4200 ± 700 nM.
Same read-out and setting: then `O=C(NO)c1ccc(N(Cc2ccc(C3CCCCC3)cc2)C(=O)[C@H]2CCN2S(=O)(=O)c2c(F)c(F)c(F)c(F)c2F)c(F)c1` [Example 50, (R)—N-(4-cyclohexylbenzyl)-N-(2-fluoro-4-(hydroxycarbamoyl)phenyl)-1-((perfluorophenyl)sulfonyl)azetidine-2-carboxamide], with 1750 ± 190 nM.
`O=C(O)c1ccc(N(Cc2ccc(C3CCCC3)cc2)C(=O)[C@H]2CCCN2S(=O)(=O)c2c(F)c(F)c(F)c(F)c2F)cc1O` [Example 79, (R)-4-(N-(4-cyclopentylbenzyl)-1-((perfluorophenyl)sulfonyl)pyrrolidine-2-carboxamido)-2-hydroxybenzoic acid]: at Stat3 (setting [2]), the IC50 turned out to be 3600 ± 300 nM.
For `O=C(NO)c1ccc(N(Cc2ccc(C3CCCCC3)cc2)C(=O)[C@H]2CCN2S(=O)(=O)c2c(F)c(F)c(F)c(F)c2F)cc1` [Example 83, (R)—N-(4-cyclohexylbenzyl)-N-(4-(hydroxycarbamoyl)phenyl)-1-((perfluorophenyl)sulfonyl)azetidine-2-carboxamide], the IC50 on Stat3 (setting [2]) amounted to 2510 ± 230 nM.
Take `O=C(NO)c1ccc(N(Cc2ccc(C3CCOCC3)cc2)C(=O)[C@H]2CCN2S(=O)(=O)c2c(F)c(F)c(F)c(F)c2F)cc1O` [Example 84, (R)—N-(3-hydroxy-4-(hydroxycarbamoyl)phenyl)-1-((perfluorophenyl)sulfonyl)-N-(4-(tetrahydro-2H-pyran-4-yl)benzyl)azetidine-2-carboxamide]: the IC50 on Stat3 (setting [2]) is 2070 ± 120 nM.
Still for that read-out and setting: the figure for `O=C(NO)c1ccc(N(Cc2ccc(C3CCCCC3)cc2)C(=O)[C@H]2CCN2S(=O)(=O)c2c(F)c(F)c(F)c(F)c2F)cc1O` [Example 85, (R)—N-(4-cyclohexylbenzyl)-N-(3-hydroxy-4-(hydroxycarbamoyl)phenyl)-1-((perfluorophenyl)sulfonyl)azetidine-2-carboxamide] is 1320 ± 360 nM.
Still for that read-out and setting: the figure for `O=C(NO)c1ccc(N(Cc2ccc(C3CCOCC3)cc2)C(=O)[C@H]2CCN2S(=O)(=O)c2c(F)c(F)c(F)c(F)c2F)cc1` [Example 87, (R)—N-(4-(hydroxycarbamoyl)phenyl)-1-((perfluorophenyl)sulfonyl)-N-(4-(tetrahydro-2H-pyran-4-yl)benzyl)azetidine-2-carboxamide] is 2920 ± 120 nM; for `O=C(NO)c1ccc(N(Cc2ccc(C3CCCC3)cc2)C(=O)[C@H]2CCN2S(=O)(=O)c2c(F)c(F)c(F)c(F)c2F)cc1` [Example 88, (R)—N-(4-cyclopentylbenzyl)-N-(4-(hydroxycarbamoyl)phenyl)-1-((perfluorophenyl)sulfonyl) azetidine-2-carboxamide] it is 2250 ± 720 nM.
On to `O=C(NO)c1cc(F)c(N(Cc2ccc(C3CCOCC3)cc2)C(=O)[C@H]2CCN2S(=O)(=O)c2c(F)c(F)c(F)c(F)c2F)cc1O` [Example 89, (R)—N-(2-fluoro-5-hydroxy-4-(hydroxycarbamoyl)phenyl)-1-((perfluorophenyl)sulfonyl)-N-(4-(tetrahydro-2H-pyran-4-yl)benzyl)azetidine-2-carboxamide], for which, at Stat3 (setting [2]), the IC50 was found to be 2110 ± 240 nM.
On the same count and under the same terms, the figure for `COC(=O)c1ccc(N(Cc2ccc(C3CCCCC3)nc2)C(=O)[C@H]2CCN2S(=O)(=O)c2c(F)c(F)c(F)c(F)c2F)cc1O` [Example 92, Methyl (R)-4-(N-((6-cyclohexylpyridin-3-yl)methyl)-1-((perfluorophenyl)sulfonyl)azetidine-2-carboxamido)-2-hydroxybenzoate] is 1050 ± 125 nM.
In the case of `O=C([C@H]1CCN1S(=O)(=O)c1c(F)c(F)c(F)c(F)c1F)N(Cc1ccc(C2CCCCC2)cc1)c1ccc2nc[nH]c2c1` [Example 99, (R)—N-(M-benzo[d]imidazol-6-yl)-N-(4-cyclohexylbenzyl)-1-((perfluorophenyl)sulfonyl)azetidine-2-carboxamide], the IC50 at Stat3 (setting [2]) came to 2350 ± 546 nM.
On the same count and under the same terms, the figure for `O=C([C@H]1CCN1S(=O)(=O)c1c(F)c(F)c(F)c(F)c1F)N(Cc1ccc(C2CCCCC2)cn1)c1ccc2c(=O)[nH]ncc2c1` [Example 102, (R)—N-((5-cyclohexylpyridin-2-yl)methyl)-N-(1-oxo-1,2-dihydrophthalazin-6-yl)-1-((perfluorophenyl)sulfonyl)azetidine-2-carboxamide] is 663 ± 182 nM.
Take `O=C(O)c1ccc(N(Cc2ccc(C3CCCCC3)cn2)C(=O)[C@H]2CCN2S(=O)(=O)c2c(F)c(F)c(F)c(F)c2F)c(F)c1` [Example 108, (R)-4-(N-((5-cyclohexylpyridin-2-yl)methyl)-1-((perfluorophenyl)sulfonyl)azetidine-2-carboxamido)-3-fluorobenzoic acid]: the half-maximal inhibitory concentration (IC50) at Stat3 (setting [2]) was 755 ± 110 nM.
Consider `O=C(O)c1ccc(N(Cc2ccc(C3CCCCC3)cn2)C(=O)[C@H]2CCN2S(=O)(=O)c2c(F)c(F)c(F)c(F)c2F)cc1F` [Example 116, (R)-4-(N-((5-cyclohexylpyridin-2-yl)methyl)-1-((perfluorophenyl)sulfonyl)azetidine-2-carboxamido)-2-fluorobenzoic acid], for which the IC50 on Stat3 (setting [2]) amounted to 856 ± 112 nM.
Take `O=C(O)c1ccc(N(Cc2ccc(C3CCCC3)cn2)C(=O)[C@H]2CCN2S(=O)(=O)c2c(F)c(F)c(F)c(F)c2F)c(F)c1` [Example 124, (R)-4-(N-((5-cyclopentylpyridin-2-yl)methyl)-1-((perfluorophenyl)sulfonyl)azetidine-2-carboxamido)-3-fluorobenzoic acid]: the IC50 at Stat3 (setting [2]) was found to be 1180 ± 187 nM.
The same measure, in the same setting: the figure for `CC(C)(C)c1ccc(CN(C(=O)[C@H]2CCN2S(=O)(=O)c2c(F)c(F)c(F)c(F)c2F)c2ccc(C(=O)O)c(O)c2)cc1` [Example 130, (R)-4-(N-(4-(tert-butyl)benzyl)-1-((perfluorophenyl)sulfonyl)azetidine-2-carboxamido)-2-hydroxybenzoic acid] is 2170 ± 298 nM.
On the same count and under the same terms, the figure for `CC(C)(C)c1ccc(CN(C(=O)[C@H]2CCN2S(=O)(=O)c2c(F)c(F)c(F)c(F)c2F)c2ccc(C(=O)O)cc2F)cc1` [Example 131, (R)-4-(N-(4-(tert-butyl)benzyl)-1-((perfluorophenyl)sulfonyl)azetidine-2-carboxamido)-3-fluorobenzoic acid] is 3550 ± 97 nM.
For `NC(=O)c1ccc(N(Cc2ccc(C3CCCCC3)cn2)C(=O)[C@H]2CCN2S(=O)(=O)c2c(F)c(F)c(F)c(F)c2F)cc1O` [Example 143, (R)—N-(4-carbamoyl-3-hydroxyphenyl)-N-((5-cyclohexylpyridin-2-yl)methyl)-1-((perfluorophenyl)sulfonyl)azetidine-2-carboxamide], the concentration for half-maximal inhibition (IC50) is 664 ± 167 nM at Stat3 (EMSA, read-out: IC50, inhibition of Stat3 DNA-binding activity in vitro) and 664 ± 167 nM on Stat3 (setting [2]).
Take `O=C([C@H]1CCN1S(=O)(=O)c1c(F)c(F)c(F)c(F)c1F)N(Cc1cnc(C2CCCCC2)cn1)c1ccc2c(=O)[nH]cnc2c1` [Example 151, (R)—N-((5-cyclohexylpyrazin-2-yl)methyl)-N-(4-oxo-3,4-dihydroquinazolin-7-yl)-1-((perfluorophenyl)sulfonyl)azetidine-2-carboxamide]: the IC50 at Stat3 (setting [2]) is 1460 ± 151 nM.
